Target: A2A adenosine receptors (Homo sapiens, UniProt P29274)
Assay: A2A Ki binding (methodology of Murphree et al., Mol Pharmacol 2002, 61, 455-62)
Text: The Ki values were obtained using the methodology described by Murphree et al. in Mol Pharmacol 2002, 61, 455-62.

Chain of A2A adenosine receptors (P29274 whole entry): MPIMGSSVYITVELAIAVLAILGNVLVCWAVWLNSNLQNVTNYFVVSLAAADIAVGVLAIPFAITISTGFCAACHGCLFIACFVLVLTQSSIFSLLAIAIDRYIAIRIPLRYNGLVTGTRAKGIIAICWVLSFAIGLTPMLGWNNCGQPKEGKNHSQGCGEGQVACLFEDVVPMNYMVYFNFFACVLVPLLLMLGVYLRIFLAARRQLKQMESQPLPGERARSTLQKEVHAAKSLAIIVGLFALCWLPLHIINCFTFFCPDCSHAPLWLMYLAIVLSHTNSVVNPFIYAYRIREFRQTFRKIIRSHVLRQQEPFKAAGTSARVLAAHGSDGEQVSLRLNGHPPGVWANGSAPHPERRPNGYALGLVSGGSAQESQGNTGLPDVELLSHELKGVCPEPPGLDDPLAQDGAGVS

| Ki | Compound |
| --- | --- |
| < 1 nM | Nc1nc(C#CCN(CC2CC2)C(=O)c2ccccc2)nc2c1ncn2[C@@H]1O[C@H](C(=O)NC2CC2)[C@@H](O)C1O (stereo partly drawn) [Example 3, N-Cyclopropyl 2-{3-[N-(cyclopropylmethyl)benzamido]propyn-1-yl}adenosine-5′-uronamide] |
| 1 to 50 nM | CNC(=O)[C@H]1O[C@@H](n2cnc3c(N)nc(C#CCN(C)C(=O)c4ccncc4)nc32)C(O)[C@@H]1O (stereo partly drawn) [Example 10, N-Methyl 2-{3-[N-methylisonicotinamido]propyn-1-yl}adenosine-5′-uronamide] |
| < 1 nM | CNC(=O)[C@H]1O[C@@H](n2cnc3c(N)nc(C#CCN(C(=O)c4ccc(OC)c(F)c4)C4CCC4)nc32)C(O)[C@@H]1O (stereo partly drawn) [Example 21] |
| < 1 nM | CNC(=O)[C@H]1O[C@@H](n2cnc3c(N)nc(C#CCN(C(=O)c4ccccc4)C4CCC4)nc32)C(O)[C@@H]1O (stereo partly drawn) [Example 8, N-Methyl 2-{3-[N-(cyclobutyl)benzamido]propyn-1-yl}adenosine-5′-uronamide] |
| < 1 nM | CCNC(=O)[C@H]1O[C@@H](n2cnc3c(N)nc(C#CCN(C(=O)c4ccc(Cl)nc4)C4CC4)nc32)C(O)[C@@H]1O (stereo partly drawn) [Example 26] |
| < 1 nM | CNC(=O)[C@H]1O[C@@H](n2cnc3c(N)nc(C#CCN(CC(C)C)C(=O)c4ccccc4)nc32)C(O)[C@@H]1O (stereo partly drawn) [Example 32] |
| > 50 nM | CNC(=O)[C@H]1O[C@@H](n2cnc3c(N)nc(C#CCN(C(=O)c4ccccc4)C4CC4)nc32)C(O)[C@@H]1O (stereo partly drawn) [Example 23] |
| 1 to 50 nM | Nc1nc(C#CCNC(=O)c2ccccc2)nc2c1ncn2[C@@H]1O[C@H](C(=O)NC2CC2)[C@@H](O)C1O (stereo partly drawn) [Example 5, N-Cyclopropyl 2-{3-[benzamido]propyn-1-yl}adenosine-5′-uronamide] |
| < 1 nM | CNC(=O)[C@H]1O[C@@H](n2cnc3c(N)nc(C#CCN(C(=O)c4ccccc4)C4CCCC4)nc32)C(O)[C@@H]1O (stereo partly drawn) [Example 31] |
| < 1 nM | CNC(=O)[C@H]1O[C@@H](n2cnc3c(N)nc(C#CCN(C)C(=O)c4ccc(C#N)cc4)nc32)C(O)[C@@H]1O (stereo partly drawn) [Example 33] |
| 1 to 50 nM | CCNC(=O)[C@H]1O[C@@H](n2cnc3c(N)nc(C#CCN(C(=O)Cc4ccccc4)C4CC4)nc32)C(O)[C@@H]1O (stereo partly drawn) [Example 27] |
| 1 to 50 nM | CN(CC#Cc1nc(N)c2ncn([C@@H]3O[C@H](C(=O)NC4CC4)[C@@H](O)C3O)c2n1)C(=O)c1ccc(F)nc1 (stereo partly drawn) [Example 7, N-Cyclopropyl 2-{3-[N-methyl-1-(6-fluoropyridin-3-yl)formamido]prop-1-yn-1-yl}adenosine-5′-uronamide] |
| < 1 nM | Nc1nc(C#CCN(C(=O)c2ccc(Cl)nc2)C2CC2)nc2c1ncn2[C@@H]1O[C@H](C(=O)NC2CC2)[C@@H](O)C1O (stereo partly drawn) [Example 24] |
| < 1 nM | CNC(=O)[C@H]1O[C@@H](n2cnc3c(N)nc(C#CCN(C(=O)c4ccc(Cl)cc4)C4CCC4)nc32)C(O)[C@@H]1O (stereo partly drawn) [Example 30] |
| < 1 nM | Nc1nc(C#CCN(C(=O)c2ccccc2)C2CC2)nc2c1ncn2[C@@H]1O[C@H](C(=O)NC2CC2)[C@@H](O)C1O (stereo partly drawn) [Example 25] |
| < 1 nM | CNC(=O)[C@H]1O[C@@H](n2cnc3c(N)nc(C#CCN(C(=O)c4ccc(F)cc4)C4CCC4)nc32)C(O)[C@@H]1O (stereo partly drawn) [Example 19] |
| < 1 nM | CNC(=O)[C@H]1O[C@@H](n2cnc3c(N)nc(C#CCN(CCOC)C(=O)c4cccs4)nc32)C(O)[C@@H]1O (stereo partly drawn) [Example 12, N-Methyl 2-{3-[N-(2-methoxyethyl)thiophene-2-carboxamido]propyn-1-yl}adenosine-5′-uronamide] |
| < 1 nM | CNC(=O)[C@H]1O[C@@H](n2cnc3c(N)nc(C#CCN(C)C(=O)c4ccc(C(F)(F)F)nc4)nc32)C(O)[C@@H]1O (stereo partly drawn) [Example 1, N-Methyl 2-(3-{N-methyl-1-[6-(trifluoromethyl)pyridin-3-yl]formamido}prop-1-yn-1-yl)adenosine-5′-uronamide] |

| Ki | Compound |
| --- | --- |
| < 1 nM | Nc1nc(C#CCN(C(=O)c2ccccc2)C2CCC2)nc2c1ncn2[C@@H]1O[C@H](C(=O)NC2CC2)[C@@H](O)C1O (stereo partly drawn) [Example 4, N-Cyclopropyl 2-{3-[N-(cyclobutyl)benzamido]propyn-1-yl}adenosine-5′-uronamide] |
| < 1 nM | COc1ccc(CN(CC#Cc2nc(N)c3ncn([C@@H]4O[C@H](C(=O)NC5CC5)[C@@H](O)C4O)c3n2)C(=O)C2CC2)cc1 (stereo partly drawn) [Example 18] |
| < 1 nM | CNC(=O)[C@H]1O[C@@H](n2cnc3c(N)nc(C#CCN(CCOC)C(=O)c4ccc(F)nc4)nc32)C(O)[C@@H]1O (stereo partly drawn) [Example 11, N-Methyl 2-{3-[6-fluoro-N-(2-methoxyethyl)nicotinamido]propyn-1-yl}adenosine-5′-uronamide] |
| < 1 nM | CNC(=O)[C@H]1O[C@@H](n2cnc3c(N)nc(C#CCN(CCOC)C(=O)c4ccccc4)nc32)C(O)[C@@H]1O (stereo partly drawn) [Example 14, N-Methyl 2-{3-[N-(2-methoxyethyl)benzamido]propyn-1-yl}adenosine-5′-uronamide] |
| < 1 nM | CNC(=O)[C@H]1O[C@@H](n2cnc3c(N)nc(C#CCN(C)C(=O)c4ccc(F)nc4)nc32)C(O)[C@@H]1O (stereo partly drawn) [Example 6, N-Methyl 2-{3-[N-methyl-1-(6-fluoropyridin-3-yl)formamido]prop-1-yn-1-yl}adenosine-5′-uronamide] |
| < 1 nM | CNC(=O)[C@H]1O[C@@H](n2cnc3c(N)nc(C#CCN(C(=O)c4cccc(F)c4)C4CCC4)nc32)C(O)[C@@H]1O (stereo partly drawn) [Example 20] |
| 1 to 50 nM | CNC(=O)[C@H]1O[C@@H](n2cnc3c(N)nc(C#CCN(Cc4ccc(OC)cc4)C(=O)C4CC4)nc32)C(O)[C@@H]1O (stereo partly drawn) [Example 17] |
| < 1 nM | CCNC(=O)[C@H]1O[C@@H](n2cnc3c(N)nc(C#CCN(C)C(=O)c4ccc(C(F)(F)F)nc4)nc32)C(O)[C@@H]1O (stereo partly drawn) [Example 28] |
| < 1 nM | CNC(=O)[C@H]1O[C@@H](n2cnc3c(N)nc(C#CCN(C)C(=O)c4ccc(OC)c(F)c4)nc32)C(O)[C@@H]1O (stereo partly drawn) [Example 29] |
| 1 to 50 nM | Nc1nc(C#CCN(C(=O)Cc2ccccc2)C2CC2)nc2c1ncn2[C@@H]1O[C@H](C(=O)NC2CC2)[C@@H](O)C1O (stereo partly drawn) [Example 16] |
| 1 to 50 nM | CNC(=O)[C@H]1O[C@@H](n2cnc3c(N)nc(C#CCN(C)C(=O)c4cccnc4)nc32)C(O)[C@@H]1O (stereo partly drawn) [Example 9, N-Methyl 2-{3-[N-methylnicotinamido]propyn-1-yl}adenosine-5′-uronamide] |
| < 1 nM | CCNC(=O)[C@H]1O[C@@H](n2cnc3c(N)nc(C#CCN(C)C(=O)c4ccc(F)nc4)nc32)C(O)[C@@H]1O (stereo partly drawn) [Example 35] |
| < 1 nM | CN(CC#Cc1nc(N)c2ncn([C@@H]3O[C@H](C(=O)NC4CC4)[C@@H](O)C3O)c2n1)C(=O)c1ccc(C(F)(F)F)nc1 (stereo partly drawn) [Example 2, N-Cyclopropyl 2-(3-{N-methyl-1-[6-(trifluoromethyl)pyridin-3-yl]formamido}prop-1-yn-1-yl)adenosine-5′-uronamide] |
| < 1 nM | CNC(=O)[C@H]1O[C@@H](n2cnc3c(N)nc(C#CCN(C)C(=O)c4ccc(F)cc4)nc32)C(O)[C@@H]1O (stereo partly drawn) [Example 15, N-Methyl 2-{3-[4-fluoro-N-methylbenzamido]propyn-1-yl}adenosine-5′-uronamide] |
| < 1 nM | CNC(=O)[C@H]1O[C@@H](n2cnc3c(N)nc(C#CCN(C(=O)c4ccc(Cl)nc4)C4CC4)nc32)C(O)[C@@H]1O (stereo partly drawn) [Example 22] |
| < 1 nM | CNC(=O)[C@H]1O[C@@H](n2cnc3c(N)nc(C#CCN(C)C(=O)c4ccccc4)nc32)C(O)[C@@H]1O (stereo partly drawn) [Example 13, N-Methyl 2-{3-[N-methylbenzamido]propyn-1-yl}adenosine-5′-uronamide] |
| 1 to 50 nM | CNC(=O)[C@H]1O[C@@H](n2cnc3c(N)nc(C#CCN(Cc4cccs4)C(=O)c4ccccc4)nc32)C(O)[C@@H]1O (stereo partly drawn) [Example 34] |
| 1 to 50 nM | CCNC(=O)[C@H]1O[C@@H](n2cnc3c(N)nc(C#CCN(Cc4ccc(OC)cc4)C(=O)C4CC4)nc32)C(O)[C@@H]1O (stereo partly drawn) [Example 36] |

From US9067963B2, “N-alkyl 2-(disubstituted)alkynyladenosine-5-uronamides as A2A agonists” (Lewis and Clark Pharmaceuticals, Inc., priority 2012, dated 2015)
